The record followed here is US11331369B2, “Endoparasitic depsipeptides” (Zoetis Services LLC, priority 2017, dated 2022).

The subject of this experiment is microfilariae of Dirofilaria immitis. Put plainly: Dirofilaria immitis, Microfilaria (DiMF) In vitro Assay. The experiment is classed as cell-based. As to conditions: 72 h, read-out: DiMF Minimum Effective Dose (MED), approximately 72 hours incubation, microfilariae assessed for survival or paralysis.

In the case of `CCOc1cnn(Cc2ccc(C[C@H]3OC(=O)[C@H](CC(C)C)N(C)C(=O)[C@@H](C)OC(=O)[C@H](CC(C)C)N(C)C(=O)[C@@H](Cc4ccc(CO)cc4)OC(=O)[C@H](CC(C)C)N(C)C(=O)[C@@H](C)OC(=O)[C@H](CC(C)C)N(C)C3=O)cc2)c1` [Example 2-39, (3S,6R,9S,12R,15S,18R,21S,24R)-6-(4-((4-ethoxy-1H-pyrazol-1-yl)methyl)benzyl)-18-(4-(hydroxymethyl)benzyl)-3,9,15,21-tetraisobutyl-4,10,12,16,22,24-hexamethyl-1,7,13,19-tetraoxa-4,10,16,22-tetraazacyclotetracosan-2,5,8,11,14,17,20,23-octaone], the minimal effective concentration fell in the range of 0.001 to 0.01 µM.

For `CC(C)C[C@H]1C(=O)O[C@H](Cc2ccc(CN3CCOc4cccnc43)cc2)C(=O)N(C)[C@@H](CC(C)C)C(=O)O[C@H](C)C(=O)N(C)[C@@H](CC(C)C)C(=O)O[C@H](Cc2ccccc2)C(=O)N(C)[C@@H](CC(C)C)C(=O)O[C@H](C)C(=O)N1C` [Example 10-37, (3S,6R,9S,12R,15S,18R,21S,24R)-6-benzyl-18-[[4-(2,3-dihydropyrido[3,2-b][1,4]oxazin-4-ylmethyl)phenyl]methyl]-3,9,15,21-tetraisobutyl-4,10,12,16,22,24-hexamethyl-1,7,13,19-tetraoxa-4, 10,16,22-tetrazacyclotetracosane-2,5,8,11,14,17,20,23-octaone], the minimal effective concentration was 0.001 to 0.01 µM.

In the case of `CC(C)C[C@H]1C(=O)O[C@H](Cc2ccc(Cn3ccnc3-c3cncs3)cc2)C(=O)N(C)[C@@H](CC(C)C)C(=O)O[C@H](C)C(=O)N(C)[C@@H](CC(C)C)C(=O)O[C@H](Cc2ccc(Cn3ccnc3-c3cncs3)cc2)C(=O)N(C)[C@@H](CC(C)C)C(=O)O[C@H](C)C(=O)N1C` [Example 6-18, (3S,6R,9S,12R,15S,18R,21S,24R)-3,9,15,21-tetraisobutyl-4,6,10,16,18,22-hexamethyl-12,24-bis(4-((2-(thiazol-5-yl)-1H-imidazol-1-yl)methyl)benzyl)-1,7,13,19-tetraoxa-4,10,16,22-tetraazacyclotetracosan-2,5,8,11,14,17,20,23-octaone], the minimal effective concentration was in the range of 0.01 to 0.1 µM.

As to `CC(C)C[C@H]1C(=O)O[C@H](Cc2ccc(CN3CCSCC3)cc2)C(=O)N(C)[C@@H](CC(C)C)C(=O)O[C@H](C)C(=O)N(C)[C@@H](CC(C)C)C(=O)O[C@H](Cc2ccc(CN3CCSCC3)cc2)C(=O)N(C)[C@@H](CC(C)C)C(=O)O[C@H](C)C(=O)N1C` [Example 9-2, (3S,6R,9S,12R,15S,18R,21S,24R)-3,9,15,21-tetraisobutyl-4,6,10,16,18,22-hexamethyl-12,24-bis(4-(thiomorpholinomethyl)benzyl)-1,7,13,19-tetraoxa-4,10,16,22-tetraazacyclotetracosan-2,5,8,11,14,17,20,23-octaone], the minimal effective concentration lay within 0.01 to 0.1 µM.

On to `Cc1cc(CC#N)nn1Cc1ccc(C[C@H]2OC(=O)[C@H](CC(C)C)N(C)C(=O)[C@@H](C)OC(=O)[C@H](CC(C)C)N(C)C(=O)[C@@H](Cc3ccc(Cn4nc(CC#N)cc4C)cc3)OC(=O)[C@H](CC(C)C)N(C)C(=O)[C@@H](C)OC(=O)[C@H](CC(C)C)N(C)C2=O)cc1` [Example 1b-7, 2,2′-((((((2R,5S,8R,11S,14R,17S,20R,23S)-5,11,17,23-tetraisobutyl-4,8,10,16,20,22-hexamethyl-3,6,9,12,15,18,21,24-octaoxo-1,7,13,19-tetraoxa-4,10,16,22-tetraazacyclotetracosane-2,14-diyl)bis(methylene))bis(4,1-phenylene))bis(methylene))bis(5-methyl-1H-pyrazole-1,3-diyl))diacetonitrile], for which the minimal effective concentration was 0.001 to 0.01 µM.

For `CC(C)C[C@H]1C(=O)O[C@H](Cc2ccc(Cn3cc(C(F)(F)F)cn3)cc2)C(=O)N(C)[C@@H](CC(C)C)C(=O)O[C@H](C)C(=O)N(C)[C@@H](CC(C)C)C(=O)O[C@H](Cc2ccccc2)C(=O)N(C)[C@@H](CC(C)C)C(=O)O[C@H](C)C(=O)N1C` [Example 2-20, (3S,6R,9S,12R,15S,18R,21S,24R)-6-benzyl-3,9,15,21-tetraisobutyl-4,10,12,16,22,24-hexamethyl-18-(4-((4-(trifluoromethyl)-1H-pyrazol-1-yl)methyl)benzyl)-1,7,13,19-tetraoxa-4,10,16,22-tetraazacyclotetracosan-2,5,8,11,14,17,20,23-octaone], the minimal effective concentration lay in the range of 0.01 to 0.1 µM.

Consider `CC(C)C[C@H]1C(=O)O[C@H](Cc2ccc(Cn3cc(NS(C)(=O)=O)cn3)cc2)C(=O)N(C)[C@@H](CC(C)C)C(=O)O[C@H](C)C(=O)N(C)[C@@H](CC(C)C)C(=O)O[C@H](Cc2ccccc2)C(=O)N(C)[C@@H](CC(C)C)C(=O)O[C@H](C)C(=O)N1C` [Example 2-36, N-(1-(4-(((2R,5S,8R,11S,14R,17S,20R,23S)-14-benzyl-5,11,17,23-tetraisobutyl-4,8,10,16,20,22-hexamethyl-3,6,9,12,15,18,21,24-octaoxo-1,7,13,19-tetraoxa-4,10,16,22-tetraazacyclotetracosan-2-yl)methyl)benzyl)-1H-pyrazol-4-yl)methanesulfonamide], for which the minimal effective concentration fell in the range of 0.01 to 0.1 µM.

For `CC(C)C[C@H]1C(=O)O[C@H](Cc2ccc(CN3CCSc4ncccc43)cc2)C(=O)N(C)[C@@H](CC(C)C)C(=O)O[C@H](C)C(=O)N(C)[C@@H](CC(C)C)C(=O)O[C@H](Cc2ccccc2)C(=O)N(C)[C@@H](CC(C)C)C(=O)O[C@H](C)C(=O)N1C` [Example 10-35, (3S,6R,9S,12R,15S,18R,21S,24R)-6-benzyl-18-[[4-(2,3-dihydropyrido[2,3-b][1,4]thiazin-1-ylmethyl)phenyl]methyl]-3,9,15,21-tetraisobutyl-4,10,12,16,22,24-hexamethyl-1,7,13,19-tetraoxa-4, 10,16,22-tetrazacyclotetracosane-2,5,8,11,14,17,20,23-octaone], the minimal effective concentration is 0.01 to 0.1 µM.

With `CC(C)C[C@H]1C(=O)O[C@H](Cc2ccc(Cn3ccc(-c4ccncc4)n3)cc2)C(=O)N(C)[C@@H](CC(C)C)C(=O)O[C@H](C)C(=O)N(C)[C@@H](CC(C)C)C(=O)O[C@H](Cc2ccc(Cn3ccc(-c4ccncc4)n3)cc2)C(=O)N(C)[C@@H](CC(C)C)C(=O)O[C@H](C)C(=O)N1C` [Example 1b-138, (3S,6R,9S,12R,15S,18R,21S,24R)-3,9,15,21-tetraisobutyl-4,6,10,16,18,22-hexamethyl-12,24-bis(4-((3-(pyridin-4-yl)-1H-pyrazol-1-yl)methyl)benzyl)-1,7,13,19-tetraoxa-4,10,16,22-tetraazacyclotetracosan-2,5,8,11,14,17,20,23-octaone], the minimal effective concentration is 0.01 to 0.1 µM.

For `Cc1nccn1Cc1ccc(C[C@H]2OC(=O)[C@H](CC(C)C)N(C)C(=O)[C@@H](C)OC(=O)[C@H](CC(C)C)N(C)C(=O)[C@@H](Cc3cccc(Cn4ccnc4C)c3)OC(=O)[C@H](CC(C)C)N(C)C(=O)[C@@H](C)OC(=O)[C@H](CC(C)C)N(C)C2=O)cc1` [Example 7-1, (3S,6R,9S,12R,15S,18R,21S,24R)-3,9,15,21-tetraisobutyl-4,6,10,16,18,22-hexamethyl-12-[[3-[(2-methylimidazol-1-yl)methyl]phenyl]methyl]-24-[[4-[(2-methylimidazol-1-yl)methyl]phenyl]methyl]-1,7,13,19-tetraoxa-4,10,16,22-tetrazacyclotetracosane-2,5,8,11,14,17,20,23-octaone], the minimal effective concentration was in the range of 0.01 to 0.1 µM.

As for `CC(C)C[C@H]1C(=O)O[C@H](Cc2ccc(CN3CCOc4cccnc43)cc2)C(=O)N(C)[C@@H](CC(C)C)C(=O)O[C@H](C)C(=O)N(C)[C@@H](CC(C)C)C(=O)O[C@H](Cc2ccc(CN3CCOc4cccnc43)cc2)C(=O)N(C)[C@@H](CC(C)C)C(=O)O[C@H](C)C(=O)N1C` [Example 9-64, (3S,6R,9S,12R,15S,18R,21S,24R)-6,18-bis[[4-(2,3-dihydropyrido[3,2-b][1,4]oxazin-4-ylmethyl)phenyl]methyl]-3,9,15,21-tetraisobutyl-4,10,12,16,22,24-hexamethyl-1,7,13,19-tetraoxa-4,10,16,22-tetrazacyclotetracosane-2,5,8,11,14,17,20,23-octaone], the minimal effective concentration is 0.01 to 0.1 µM.

`CC(C)C[C@H]1C(=O)O[C@H](Cc2ccc(Cn3cc(-c4ccccn4)cn3)cc2)C(=O)N(C)[C@@H](CC(C)C)C(=O)O[C@H](C)C(=O)N(C)[C@@H](CC(C)C)C(=O)O[C@H](Cc2ccccc2)C(=O)N(C)[C@@H](CC(C)C)C(=O)O[C@H](C)C(=O)N1C` [Example 2-47, (3S,6R,9S,12R,15S,18R,21S,24R)-6-benzyl-3,9,15,21-tetraisobutyl-4,10,12,16,22,24-hexamethyl-18-(4-((4-(pyridin-2-yl)-1H-pyrazol-1-yl)methyl)benzyl)-1,7,13,19-tetraoxa-4,10, 16,22-tetraazacyclotetracosan-2,5,8,11,14,17,20,23-octaone]: the minimal effective concentration lay in the range of 0.001 to 0.01 µM.

As for `Cc1cnn(Cc2ccc(C[C@H]3OC(=O)[C@H](CC(C)C)N(C)C(=O)[C@@H](C)OC(=O)[C@H](CC(C)C)N(C)C(=O)[C@@H](Cc4ccc(Cn5cc(-c6ccccc6)cn5)cc4)OC(=O)[C@H](CC(C)C)N(C)C(=O)[C@@H](C)OC(=O)[C@H](CC(C)C)N(C)C3=O)cc2)c1` [Example 1a-19, (3S,6R,9S,12R,15S,18R,21S,24R)-3,9,15,21-tetraisobutyl-4,6,10,16,18,22-hexamethyl-12-(4-((4-methyl-1H-pyrazol-1-yl)methyl)benzyl)-24-(4-((4-phenyl-1H-pyrazol-1-yl)methyl)benzyl)-1,7,13,19-tetraoxa-4,10,16,22-tetraazacyclotetracosan-2,5,8,11,14,17,20,23-octaone], the minimal effective concentration lay within 0.01 to 0.1 µM.

As for `CC(C)C[C@H]1C(=O)O[C@H](Cc2ccc(Cn3cc(C(C)(C)C)cn3)cc2)C(=O)N(C)[C@@H](CC(C)C)C(=O)O[C@H](C)C(=O)N(C)[C@@H](CC(C)C)C(=O)O[C@H](Cc2ccccc2)C(=O)N(C)[C@@H](CC(C)C)C(=O)O[C@H](C)C(=O)N1C` [Example 2-8, (3S,6R,9S,12R,15S,18R,21S,24R)-6-benzyl-18-[[4-[(4-tert-butylpyrazol-1-yl)methyl]phenyl]methyl]-3,9,15,21-tetraisobutyl-4,10,12,16,22,24-hexamethyl-1,7,13,19-tetraoxa-4,10,16,22-tetrazacyclotetracosane-2,5,8,11,14,17,20,23-octaone], the minimal effective concentration lay in the range of 0.01 to 0.1 µM.
